The target of the assay is T1, human mGlu5a receptor (Homo sapiens, UniProt P41594).
T1 construct: expressed in transfected cells
The assay can be described thus: Intracellular Ca2+ mobilization assay (mGlu5 PAM). Type of assay: cell-based. As to conditions: for EC50: HEK-293 cells stably transfected with human mGlu5a, L-glutamate added at EC20 after pre-incubation with test compound, read-out: EC50 (nM) mGlu5PAM; for Emax: maximal response in % of the maximal stimulatory effect obtained with saturating concentrations of L-glutamate, read-out: Eff. (%). How it is done:
A monoclonal HEK-293 cell line stably transfected with a cDNA encoding for the human mGlu5a receptor was generated; for the work with mGlu5 Positive Allosteric Modulators (PAMs), a cell line with low receptor expression levels and low constitutive receptor activity was selected to allow the differentiation of agonistic versus PAM activity. Cells were cultured according to standard protocols (Freshney, 2000) in Dulbecco's Modified Eagle Medium with high glucose supplemented with 1 mM glutamine, 10% (vol/vol) heat-inactivated bovine calf serum, Penicillin/Streptomycin, 50 μg/ml hygromycin and 15 μg/ml blasticidin (all cell culture reagents and antibiotics from Invitrogen, Basel, Switzerland).
About 24 hrs before an experiment, 5×10^4 cells/well were seeded in poly-D-lysine coated, black/clear-bottomed 96-well plates. The cells were loaded with 2.5 μM Fluo-4AM in loading buffer (1×HBSS, 20 mM HEPES) for 1 hr at 37° C. and washed five times with loading buffer. The cells were transferred into a Functional Drug Screening System 7000 (Hamamatsu, Paris, France), and 11 half logarithmic serial dilutions of test compound at 37° C. were added and the cells were incubated for 10-30 min, with on-line recording of fluorescence. Following this pre-incubation step, the agonist L-glutamate was added to the cells at a concentration corresponding to EC20 (typically around 80 μM) with on-line recording of fluorescence; in order to account for day-to-day variations in the responsiveness of cells, the EC20 of glutamate was determined immediately ahead of each experiment by recording of a full dose-response curve of glutamate.
Responses were measured as peak increase in fluorescence minus basal (i.e. fluorescence without addition of L-glutamate), normalized to the maximal stimulatory effect obtained with saturating concentrations of L-glutamate. Graphs were plotted with the % maximal stimulatory using XLfit, a curve fitting program that iteratively plots the data using Levenburg Marquardt algorithm. The single site competition analysis equation used was y=A+((B−A)/(1+((x/C)D))), where y is the % maximal stimulatory effect, A is the minimum y, B is the maximum y, C is the EC50, x is the log 10 of the concentration of the competing compound and D is the slope of the curve (the Hill Coefficient). From these curves the EC50 (concentration at which half maximal stimulation was achieved), the Hill coefficient as well as the maximal response in % of the maximal stimulatory effect obtained with saturating concentrations of L-glutamate were calculated.
A depression of the signal observed after addition of the EC20 concentration of L-glutamate was indicative of an inhibitory activity of the test compound.

This passage reports EC50 and Emax results from US8969338B2, “Ethynyl derivatives” (Hoffmann-La Roche Inc., priority 2011, dated 2015).

Molecules are shown by their SMILES.

T1 sequence (P41594 21-1180 isoform P41594-2 limits assumed): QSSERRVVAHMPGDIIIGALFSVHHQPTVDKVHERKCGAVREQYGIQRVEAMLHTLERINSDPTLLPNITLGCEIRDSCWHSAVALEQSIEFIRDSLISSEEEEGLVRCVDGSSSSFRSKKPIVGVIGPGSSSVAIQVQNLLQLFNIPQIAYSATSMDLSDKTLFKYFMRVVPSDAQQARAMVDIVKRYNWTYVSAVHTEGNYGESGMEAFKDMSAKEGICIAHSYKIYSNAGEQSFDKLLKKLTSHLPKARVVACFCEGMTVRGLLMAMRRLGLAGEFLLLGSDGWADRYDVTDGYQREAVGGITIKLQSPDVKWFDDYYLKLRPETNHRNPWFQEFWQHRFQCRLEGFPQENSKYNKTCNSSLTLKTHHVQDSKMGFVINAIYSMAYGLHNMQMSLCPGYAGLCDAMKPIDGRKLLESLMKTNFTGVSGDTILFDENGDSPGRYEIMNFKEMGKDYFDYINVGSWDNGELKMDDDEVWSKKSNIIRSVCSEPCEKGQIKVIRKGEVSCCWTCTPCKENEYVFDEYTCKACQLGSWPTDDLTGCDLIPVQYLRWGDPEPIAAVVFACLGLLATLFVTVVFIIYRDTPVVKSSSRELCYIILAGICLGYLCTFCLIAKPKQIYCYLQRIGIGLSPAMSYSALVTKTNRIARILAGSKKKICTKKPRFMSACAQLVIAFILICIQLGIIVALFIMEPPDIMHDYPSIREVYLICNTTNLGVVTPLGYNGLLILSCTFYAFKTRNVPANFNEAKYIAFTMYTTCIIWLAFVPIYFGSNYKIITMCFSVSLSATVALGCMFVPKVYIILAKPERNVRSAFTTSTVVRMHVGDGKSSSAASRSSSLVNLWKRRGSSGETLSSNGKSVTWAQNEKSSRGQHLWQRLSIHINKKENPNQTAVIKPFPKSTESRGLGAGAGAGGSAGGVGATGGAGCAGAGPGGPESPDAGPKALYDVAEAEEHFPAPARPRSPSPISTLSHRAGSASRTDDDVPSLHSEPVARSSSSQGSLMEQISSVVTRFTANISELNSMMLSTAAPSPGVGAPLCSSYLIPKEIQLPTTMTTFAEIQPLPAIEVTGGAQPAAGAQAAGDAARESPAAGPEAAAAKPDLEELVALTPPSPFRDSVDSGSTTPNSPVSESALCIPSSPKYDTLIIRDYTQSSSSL

Take `CN1C(=O)N(c2ccc(C#Cc3cccc(F)c3)nc2)CC1(C)C` [Example 5, 1-[6-(3-Fluoro-phenylethynyl)-pyridin-3-yl]-3,4,4-trimethyl-imidazolidin-2-one]: the concentration giving a half-maximal response (EC50) (as a rule, the concentration needed to bring the measured effect to its halfway point) worked out at 19 nM and the Emax came to 42%.

Consider `CCN1C(=O)N(c2cnc(C#Cc3ccccc3)nc2)CC1(C)C` [Example 11, 3-Ethyl-4,4-dimethyl-1-(2-phenylethynyl-pyrimidin-5-yl)-imidazolidin-2-one], for which the EC50 was 79 nM and the Emax came to 52%.

Regarding `CC1(C)CC(=O)N(c2ccc(C#Cc3cccc(F)c3)nc2)C1` [Example 7, 1-[6-(3-Fluoro-phenylethynyl)-pyridin-3-yl]-4,4-dimethyl-pyrrolidin-2-one], the EC50 stood at 39 nM and the Emax amounted to 62%.

In the case of `CN1N(c2ccc(C#Cc3cc(F)ccc3F)nc2)C(=O)CC1(C)C` [Example 14, 2-[6-(2,5-Difluoro-phenylethynyl)-pyridin-3-yl]-1,5,5-trimethyl-pyrazolidin-3-one], the concentration for a half-maximal effect (EC50) worked out at 53 nM and the Emax was 57%.

`CC1(C)CC(=O)N(c2ccc(C#Cc3ccccc3)nc2)N1` [Example 8, 5,5-Dimethyl-2-(6-phenylethynyl-pyridin-3-yl)-pyrazolidin-3-one]: the EC50 worked out at 62 nM and the Emax was 56%.

Regarding `CC1(C)CC(=O)N(c2ccc(C#Cc3ccccc3)nc2)C1` [Example 1, 4,4-Dimethyl-1-(6-phenylethynyl-pyridin-3-yl)-pyrrolidin-2-one], the EC50 was found to be 49 nM and the Emax is 75%.

Take `CC1(C)CC(=O)N(c2cnc(C#Cc3ccccc3)nc2)C1` [Example 9]: the EC50 turned out to be 36 nM and the Emax turned out to be 39%.

As for `CN1C(=O)N(c2ccc(C#Cc3cccnc3)nc2)CC1(C)C` [Example 6, 3,4,4-Trimethyl-1-(6-pyridin-3-ylethynyl-pyridin-3-yl)-imidazolidin-2-one], the EC50 stood at 241 nM and the Emax was 36%.

With `CN1N(c2ccc(C#Cc3ccccc3)nc2)C(=O)CC1(C)C` [Example 12, 1,5,5-Trimethyl-2-(6-phenylethynyl-pyridin-3-yl)-pyrazolidin-3-one], the EC50 is 40 nM and the Emax was 66%.

In the case of `CN1C(=O)N(c2ccc(C#Cc3ccc(F)cc3)nc2)CC1(C)C` [Example 4, 1-[6-(4-Fluoro-phenylethynyl)-pyridin-3-yl]-3,4,4-trimethyl-imidazolidin-2-one], the EC50 worked out at 50 nM and the Emax amounted to 44%.

Turning to `CN1C(=O)N(c2ccc(C#Cc3ccccc3)nc2)CC1(C)C` [Example 3, 3,4,4-Trimethyl-1-(6-phenylethynyl-pyridin-3-yl)-imidazolidin-2-one], the half-maximal effective concentration (EC50) is 15 nM and the Emax is 45%.

As for `CC1(C)CC(=O)N(c2ccc(C#Cc3cccc(F)c3)nc2)N1` [Example 15, 2-[6-(3-Fluoro-phenylethynyl)-pyridin-3-yl]-5,5-dimethyl-pyrazolidin-3-one], the EC50 was 68 nM and the Emax worked out at 38%.

On to `CN1N(c2ccc(C#Cc3cccc(F)c3)nc2)C(=O)CC1(C)C` [Example 13, 2-[6-(3-Fluoro-phenylethynyl)-pyridin-3-yl]-1,5,5-trimethyl-pyrazolidin-3-one], for which the EC50 amounted to 38 nM and the Emax is 63%.

`CC1(C)CCN(c2ccc(C#Cc3ccccc3)nc2)C(=O)O1` [Example 2, 6,6-Dimethyl-3-(6-phenylethynyl-pyridin-3-yl)-[1,3]oxazinan-2-one]: the EC50 was 96 nM and the Emax was determined as 85%.

Regarding `CC1(C)CC(=O)N(c2ccc(C#Cc3cc(F)ccc3F)nc2)N1` [Example 16, 2-[6-(2,5-Difluoro-phenylethynyl)-pyridin-3-yl]-5,5-dimethyl-pyrazolidin-3-one], the EC50 is 40 nM and the Emax came out at 41%.
